Measurements taken from paper PMC4823750, “Enoyl-CoA hydratase mediates polyhydroxyalkanoate mobilization in Haloferax mediterranei” (Scientific Reports, 2016).

How the values were obtained:
[1] = target: T1, PhaJ1 (PhaJ1-His6; HFX_5217) (Haloferax mediterranei, UniProt A0ACN4YM66); assay: HPLC of dehydration product; format: biochemical; settings: 0.25 mM racemic 3HB-CoA; 2 M KCl, 100 mM Tris-HCl pH 7.5, 5 mM MgCl2, 45 °C, 30 min
T1 construct: gene maoC; N-terminal His6 tag kept; 219 residues (native); expressed from pTA05-phaJ1 in Haloferax volcanii H1424, Ni-agarose purified
T1 sequence (A0ACN4YM66 entry or part of it): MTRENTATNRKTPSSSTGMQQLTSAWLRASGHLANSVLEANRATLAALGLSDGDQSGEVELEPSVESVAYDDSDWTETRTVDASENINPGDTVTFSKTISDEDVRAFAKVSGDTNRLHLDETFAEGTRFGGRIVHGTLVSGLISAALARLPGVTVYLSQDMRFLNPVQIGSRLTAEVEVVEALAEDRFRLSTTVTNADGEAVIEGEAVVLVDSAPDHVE

[2] = target: T1, PhaJ1 (PhaJ1-His6; HFX_5217); assay: HPLC of hydration product; format: biochemical; settings: 0.25 mM crotonyl-CoA; 2 M KCl, 100 mM Tris-HCl pH 7.5, 5 mM MgCl2, 45 °C, 30 min

| SMILES | HPLC of dehydration product [1] | HPLC of hydration product [2] |
| --- | --- | --- |
| CC(O)CC(=O)SCCNC(=O)CCNC(=O)[C@H](O)C(C)(C)COP(=O)(O)OP(=O)(O)OC[C@H]1O[C@@H](n2cnc3c(N)ncnc32)[C@H](O)[C@@H]1OP(=O)(O)O (some centres unmarked) [3-hydroxybutyryl-CoA] | minor 3HB-CoA was converted into crotonyl-CoA by PhaJ1 |  |
| C/C=C/C(=O)SCCNC(=O)CCNC(=O)[C@H](O)C(C)(C)COP(=O)(O)OP(=O)(O)OC[C@H]1O[C@@H](n2cnc3c(N)ncnc32)[C@H](O)[C@@H]1OP(=O)(O)O [crotonyl-CoA] |  | major crotonyl-CoA was converted into 3HB-CoA by PhaJ1 |
